Measurements published in paper PMC12156997, “Dihydromyricetin May Attenuate Skin Aging as a RAGE Inhibitor” (Nutrients, 2025).
pKd: −log10 of the molar value.

Tests used:
[1] = biological target: T1, RAGE (receptor for advanced glycation end products) (Homo sapiens, UniProt Q15109); assay: SPR (Biacore 1S+, CM5 chip, RAGE immobilized, multi-cycle kinetics); assay type: binding
T1 construct: gene AGER

[2] = biological target: T1, RAGE (receptor for advanced glycation end products); assay: SPR (Biacore 1S+, CM5 chip, RAGE immobilized, multi-cycle kinetics); known RAGE inhibitor as reference; assay type: binding

T1 sequence (Q15109 23-344): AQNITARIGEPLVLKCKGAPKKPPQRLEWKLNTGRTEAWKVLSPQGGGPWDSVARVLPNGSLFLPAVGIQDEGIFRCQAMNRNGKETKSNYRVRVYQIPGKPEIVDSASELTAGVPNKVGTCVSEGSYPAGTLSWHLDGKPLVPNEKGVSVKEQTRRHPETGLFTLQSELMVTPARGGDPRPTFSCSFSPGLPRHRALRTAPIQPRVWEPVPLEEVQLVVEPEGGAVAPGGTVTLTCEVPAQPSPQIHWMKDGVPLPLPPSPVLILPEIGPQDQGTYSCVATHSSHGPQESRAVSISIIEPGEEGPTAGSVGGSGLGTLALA

pKd [2] | SMILES | pKd [1]
 | O=C1c2c(O)cc(O)cc2O[C@H](c2cc(O)c(O)c(O)c2)[C@H]1O [DHM, Dihydromyricetin] | 4.54
4.39 | O=C(c1ccc(Cl)cc1)N(Cc1ccccc1)C1CCCCC1 [FPS-ZM1] | 
